Species on record: Rattus norvegicus
Test: DrugMatrix - Regimen: Daily Repeat
Format: toxicity, organism-based, Sprague-Dawley
Design: regimen Daily Repeat, gender Male, age 6-8 weeks
Conditions: in vivo, po, route oral GAVAGE, […]; for ABSOLUTE BASOPHIL / ABSOLUTE EOSINOPHIL / ABSOLUTE LYMPHOCYTE / ABSOLUTE MONOCYTE / ABSOLUTE SEGMENTED NEUTROPHIL / BASOPHIL / EOSINOPHIL / ERYTHROCYTE COUNT / HEMATOCRIT / HEMOGLOBIN / LEUKOCYTE COUNT / LYMPHOCYTE / MEAN CORPUSCULAR HEMOGLOBIN / MEAN CORPUSCULAR HEMOGLOBIN CONCENTRATION / MEAN CORPUSCULAR VOLUME / MONOCYTE / NEUTROPHIL / NUCLEATED RED BLOOD CELLS / PLATELET COUNT: tissue Blood; for ALANINE AMINOTRANSFERASE / ALBUMIN / ALKALINE PHOSPHATASE / ASPARTATE AMINOTRANSFERASE / BLOOD UREA NITROGEN / CARBON DIOXIDE / CHLORIDE / CHOLESTEROL / CREATINE PHOSPHOKINASE / CREATININE / GLUCOSE / LACTATE DEHYDROGENASE / LIPASE / PHOSPHORUS / SODIUM / TOTAL BILIRUBIN / TOTAL PROTEIN / URIC ACID: tissue Plasma
[1] = 450 mg/kg, 120 h, dose level Low, time 5 day
[2] = 1500 mg/kg, 72 h, dose level High, time 3 day
[3] = 1500 mg/kg, 120 h, dose level High, time 5 day

Compound: CC[C@H](C)C(=O)O[C@H]1C[C@@H](C)C=C2C=C[C@H](C)[C@H](CC[C@@H]3C[C@@H](O)CC(=O)O3)[C@H]21 [LOVASTATIN]
- ABSOLUTE BASOPHIL [1]: 0 CELLS/uL
- ABSOLUTE EOSINOPHIL [1]: 0 CELLS/uL
- ABSOLUTE LYMPHOCYTE [1]: 8158 CELLS/uL
- ABSOLUTE MONOCYTE [1]: 134 CELLS/uL
- ABSOLUTE SEGMENTED NEUTROPHIL [1]: 1208 CELLS/uL
- BASOPHIL [1]: 0%
- EOSINOPHIL [1]: 0%
- ERYTHROCYTE COUNT [1]: 6.46 x10E6/uL
- HEMATOCRIT [1]: 40.17%
- HEMOGLOBIN [1]: 15.27 G/DL
- LEUKOCYTE COUNT [1]: 9.5 x10E3/uL
- LYMPHOCYTE [1]: 86%
- MEAN CORPUSCULAR HEMOGLOBIN [1]: 23.63 pg
- MEAN CORPUSCULAR HEMOGLOBIN CONCENTRATION [1]: 38.03 G/DL
- MEAN CORPUSCULAR VOLUME [1]: 62.2 fL
- MONOCYTE [1]: 1.33%
- NEUTROPHIL [1]: 12.67%
- NUCLEATED RED BLOOD CELLS [1]: 0 /100WBC
- PLATELET COUNT [1]: 1425.67 x10E3/uL
- ALANINE AMINOTRANSFERASE [1]: 153 u/L
- ALBUMIN [1]: 4.83 G/DL
- ALKALINE PHOSPHATASE [1]: 635.67 u/L
- ASPARTATE AMINOTRANSFERASE [1]: 360.33 u/L
- BLOOD UREA NITROGEN [1]: 15.33 mg/dL
- CARBON DIOXIDE [1]: 35.67 mmol/L
- CHLORIDE [1]: 100.5 MEQ/L
- CHOLESTEROL [1]: 28.67 mg/dL
- CREATINE PHOSPHOKINASE [1]: 410.33 u/L
- CREATININE [1]: 0.31 mg/dL
- GLUCOSE [1]: 137.33 mg/dL
- LACTATE DEHYDROGENASE [1]: 182.33 u/L
- LIPASE [1]: 15.33 u/L
- PHOSPHORUS [1]: 8.7 mg/dL
- SODIUM [1]: 145.2 MEQ/L
- TOTAL BILIRUBIN [1]: 0.23 mg/dL
- TOTAL PROTEIN [1]: 6.1 G/DL
- URIC ACID [1]: 0.5 mg/dL
- ABSOLUTE BASOPHIL [2]: 0 CELLS/uL
- ABSOLUTE EOSINOPHIL [2]: 21.67 CELLS/uL
- ABSOLUTE LYMPHOCYTE [2]: 6143.33 CELLS/uL
- ABSOLUTE MONOCYTE [2]: 201 CELLS/uL
- ABSOLUTE SEGMENTED NEUTROPHIL [2]: 2134 CELLS/uL
- BASOPHIL [2]: 0%
- EOSINOPHIL [2]: 0.33%
- ERYTHROCYTE COUNT [2]: 5.62 x10E6/uL
- HEMATOCRIT [2]: 35.1%
- HEMOGLOBIN [2]: 13.97 G/DL
- LEUKOCYTE COUNT [2]: 8.5 x10E3/uL
- LYMPHOCYTE [2]: 72%
- MEAN CORPUSCULAR HEMOGLOBIN [2]: 24.9 pg
- MEAN CORPUSCULAR HEMOGLOBIN CONCENTRATION [2]: 39.83 G/DL
- MEAN CORPUSCULAR VOLUME [2]: 62.5 fL
- MONOCYTE [2]: 2.33%
- NEUTROPHIL [2]: 25.33%
- NUCLEATED RED BLOOD CELLS [2]: 0 /100WBC
- PLATELET COUNT [2]: 1031.67 x10E3/uL
- ALANINE AMINOTRANSFERASE [2]: 318 u/L
- ALBUMIN [2]: 4.3 G/DL
- ALKALINE PHOSPHATASE [2]: 538.67 u/L
- ASPARTATE AMINOTRANSFERASE [2]: 602.33 u/L
- BLOOD UREA NITROGEN [2]: 15.33 mg/dL
- CARBON DIOXIDE [2]: 30.33 mmol/L
- CHLORIDE [2]: 98 MEQ/L
- CHOLESTEROL [2]: 50 mg/dL
- CREATINE PHOSPHOKINASE [2]: 490 u/L
- CREATININE [2]: 0.37 mg/dL
- GLUCOSE [2]: 141.67 mg/dL
- LACTATE DEHYDROGENASE [2]: 851.33 u/L
- LIPASE [2]: 10.33 u/L
- PHOSPHORUS [2]: 10.3 mg/dL
- SODIUM [2]: 142.63 MEQ/L
- TOTAL BILIRUBIN [2]: 0.1 mg/dL
- TOTAL PROTEIN [2]: 5.53 G/DL
- URIC ACID [2]: 0.7 mg/dL
- ABSOLUTE BASOPHIL [3]: 0 CELLS/uL
- ABSOLUTE EOSINOPHIL [3]: 0 CELLS/uL
- ABSOLUTE LYMPHOCYTE [3]: 8899 CELLS/uL
- ABSOLUTE MONOCYTE [3]: 314.33 CELLS/uL
- ABSOLUTE SEGMENTED NEUTROPHIL [3]: 2320 CELLS/uL
- BASOPHIL [3]: 0%
- EOSINOPHIL [3]: 0%
- ERYTHROCYTE COUNT [3]: 6.78 x10E6/uL
- HEMATOCRIT [3]: 41.27%
- HEMOGLOBIN [3]: 15.53 G/DL
- LEUKOCYTE COUNT [3]: 11.53 x10E3/uL
- LYMPHOCYTE [3]: 76%
- MEAN CORPUSCULAR HEMOGLOBIN [3]: 22.93 pg
- MEAN CORPUSCULAR HEMOGLOBIN CONCENTRATION [3]: 37.63 G/DL
- MEAN CORPUSCULAR VOLUME [3]: 60.93 fL
- MONOCYTE [3]: 2.67%
- NEUTROPHIL [3]: 21.33%
- NUCLEATED RED BLOOD CELLS [3]: 0 /100WBC
- PLATELET COUNT [3]: 1526.33 x10E3/uL
- ALANINE AMINOTRANSFERASE [3]: 234.33 u/L
- ALBUMIN [3]: 4.7 G/DL
- ALKALINE PHOSPHATASE [3]: 440.67 u/L
- ASPARTATE AMINOTRANSFERASE [3]: 648.33 u/L
- BLOOD UREA NITROGEN [3]: 17 mg/dL
- CARBON DIOXIDE [3]: 35.67 mmol/L
- CHLORIDE [3]: 100.5 MEQ/L
- CHOLESTEROL [3]: 55.33 mg/dL
- CREATINE PHOSPHOKINASE [3]: 603 u/L
- CREATININE [3]: 0.34 mg/dL
- GLUCOSE [3]: 135 mg/dL
- LACTATE DEHYDROGENASE [3]: 832.33 u/L
- LIPASE [3]: 14.67 u/L
- PHOSPHORUS [3]: 8.5 mg/dL
- SODIUM [3]: 145.6 MEQ/L
- TOTAL BILIRUBIN [3]: 0.2 mg/dL
- TOTAL PROTEIN [3]: 6.33 G/DL
- URIC ACID [3]: 0.63 mg/dL
